The test system of one assay is MCT-PAH rats. The experiment in a line: Monocrotaline induced PAH rat model (MCT-PAH). It is filed as in vivo, Sprague-Dawley rats. Particulars: 4.5 mg/kg intragastric gavage, three weeks after MCT. As for the experimental part: In vivo experiments with MCT-PAH rats: Monocrotaline (MCT, 55 mg/kg) or saline were administrated subcutaneously in single dose to male Sprague-Dawley rats (supplied by Nation Institutes for Food and Medicament Control). Three weeks after the injection of MCT, 4.5 mg/kg of piperidino pyrazolopyrimidine compound (A), saline or positive control (Sildenafil) were administrated respectively to the rats by intragastric gavage. Two weeks after the administration, the right ventricular systolic pressure (RVSP) was measured and the survival rate was calculated with the data of RVSP recorded in BL-420E system (FIG. 13).

Another assay deals with endothelial cells. The experiment in a line: Angiogenesis of endothelial cells on Matrigel. Type of assay: cell-based. As to conditions: 2-8 hours; for ability of angiogenesis compared with control: ECs on Matrigel. As for the experimental part: The endothelial cells were grown in complete culture medium (1% FBS in SFM) to confluency. One day before the experiment of angiogenesis, the medium was replaced by 0.2% FBS SFM to starve the cells for 16 hours. One the day before the experiment, Matrigel (Corning, 10 mg/ml) was put on ice overnight for thawing, and on the day of experiment, Matrigel was added in the wells of the pre-chilled 96-well plate (50 μl per well) and was distributed evenly in the wells. Then the plate was put in the incubator and incubated at 37 □ for 30 mins. Afterwards, the medium for starvation was removed and the cells were washed twice with DPBS, then Accutase enzyme was added to digest the cells for 1 minute. Later on, the SFM medium for starvation was added to resuspend the cells, and the cells were gently pipetted to form single cell suspension and centrifuged in room temperature at 1000 rpm for 4 mins. The cells were resuspended in SFM medium for starvation and counted. Then, the cells were seeded in 1×10^4 cells per well, and were gently shook to distributed evenly before putting in the incubator at 37 □. The angiogenesis was observed within 2-8 hours.

The subject of assay [1] is Id1 promoter driven Venus-Luci dual reporter gene in ID1-V-LUC hES. The experiment in a line: ID1-V-LUC hES luciferase assay with compound (Example 4). It is filed as cell-based, human. As to conditions: 18-24 h. The method, then:
ID1-V-LUC hES were seeded in a 96-well plate and were grown to 80% confluency. The old medium was removed and the cells were washed with PBS, then mTeSR medium of human embryonic stem cell (Biowish.Co.,Ltd.) was added. The cells were starved for 6 hours prior to incubating with the compound: 1H-Pyrazolo[3,4-d]pyrimidine, 1-phenyl-4-(1-piperidinyl)- (Cas No :23000-46-6). The compound was serially diluted to 5, 2.5, 1.25, 0.625, 0.3 μg/mL in above-mentioned medium, and sequentially added in the 96-well plate in which the stem cells of the model were seeded. Triplicate replicates were used for each concentration. At the same time, the well in which the medium containing 0.1% DMSO was added as blank control. After the incubation of 18-24 h at 37° C. (5% CO2), the cells were lysed with cell lysis buffer CCLR (Promega), and the luciferase activity were detected using the method according to the instruction of the detection system of reporter gene, Luciferase Assay System (Promega).
The activity of luciferase resulting from the stimulation of the compounds at different concentrations was calculated using the following formula:
Regulation rate=Luciferase activity of compound-treated cells/Luciferase activity of DMSO-treated cells×100%

The subject of a further assay is phosphodiesterase. The experiment in a line: Inhibitory effect on phosphodiesterase. It is filed as biochemical.
Assay [2] has as its system Id1 promoter driven Venus-Luci dual reporter gene in ID1-V-LUC hES. The experiment in a line: ID1-V-LUC hES differentiated cells stimulated with BMP4, luciferase activity. Type of assay: cell-based, human. Particulars: after 4 hours of stimulation with 6.25 ng/mL of BMP4, differentiated cells. The method, then: Id1-Venus-Luc-MC1-DTA plasmid was linearized with AsiSI, and then the resulting plasmid was electroporated into human embryonic stem cells (H9) of P57 (a commercially available human embryonic stem cells which could be passage to expand). At 37° C., CO2 5%, the cells were cultured on the DR4 MEF-feeder-cells (APPLIEDSTEMCELL, Inc., U.S.) with the medium containing serum replacement, and the medium was replaced by fresh medium daily. BioRad electroporation machine (ZAP: 250 V, uF 500, TC 8.6) was used for electroporation, then 19 clones were screened out using puromycin, and the clones with green fluorescence were picked out (the cells containing MC1-DTA plasmid cannot survive). The consistency between fluorescent activity and expression of endogenous Id gene was measured (FIG. 8).
The luciferase activity increased over time (0, 1, 2 and 5 hours) after the stimulation with of BMP4. The effect of external stimulus on the expression of Id gene can be reflected maximally by expression level of luciferase. Therefore, clone 2 (named as ID1-V-LUC hES) was selected and was used to carry out the secondary screening for the compounds (FIG. 9). ID1-V-LUC hES was differentiated toward early mesoderm, also the vascular cell with smooth muscle cell markers (α SMA, Calponin) were obtained. […]

The text below walks through data of patent publication US20180172669A1, “SCREENING AND USE OF PIPERIDINO PYRAZOLOPYRIMIDINE COMPOUND” (Institute of Basic Medical Sciences, Chinese Academy of …, priority 2015, published 2018).

For the molecule `c1ccc(-n2ncc3c(N4CCCCC4)ncnc32)cc1` [piperidino pyrazolopyrimidine compound, 1H-Pyrazolo[3,4-d]pyrimidine,1-phenyl-4-(1-piperidinyl)-], in the assay with MCT-PAH rats (measured two weeks after the administration), the “pulmonary arterial pressure (right ventricular systolic pressure, RVSP) of MCT-PAH rats” value is on record as “decreased significantly”. Besides, the “survival rate of the rats with MCT-PAH” value in the assay with MCT-PAH rats (two weeks after the administration) was “increased obviously”. Also, in the assay on endothelial cells (1 μM), the “ability of angiogenesis relative to VEGF treated ECs” value is “comparable” and the “ability of angiogenesis compared with control” value was “significantly increased”. In the assay with endothelial cells (5 μM), the “ability of angiogenesis relative to VEGF treated ECs” value is “comparable” and the “ability of angiogenesis compared with control” value is on record as “significantly increased”. Besides, the “expression level of luciferase of the stem cells of the model” value in assay [1] (5, 2.5, 1.25, 0.625, 0.3 μg/mL) is reported as “up-regulated”. The “peak expression level of luciferase (regulation rate)” value in assay [1] (concentration of the compound 2.5 μg/mL, vs DMSO) is listed as 3.31 fold. Besides, in the assay with phosphodiesterase, the “inhibitory effect on phosphodiesterase” value is on record as “weak inhibitory effect”.

B1: BMP4: BMP ligand (Peprotech) used to stimulate ID1-V-LUC hES cells (protein, UniProt P12644 293-408, looked up)
Bone morphogenetic protein 4: SPKHHSQRARKKNKNCRRHSLYVDFSDVGWNDWIVAPPGYQAFYCHGDCPFPLADHLNSTNHAIVQTLVNSVNSSIPKACCVPTELSAISMLYLDEYDKVVLKNYQEMVVEGCGCR
As for B1, in assay [2], the “regulation rate of ID1-V-LUC” value is given as 7.5 fold.
